Laboratory results published in patent publication US5637595A, “Cyclic ether acetal PAF antagonists” (British Bio-technology Limited, priority 1991, dated 1997).

Tests used:
[1] = system: PAF-induced hypotension in the rat; test: Inhibition of PAF-induced hypotension in the rat; format: in vivo, rat (male Sprague-Dawley); conditions: iv, anaesthetised rats, PAF 100 ng/kg/min i.v. infusion, test compound i.v. bolus, straight line interpolation, read-out: ED50, dose to cause a 50% reversal of the hypotensive PAF response
Method: Male Sprague-Dawley rats (300-400 g) were anaesthetised with a mixture of sodium pentobarbitone, 22.5 mg/kg and thiopental 62.5 mg/kg. Through a midline incision in the neck, the trachea was cannulated and the animals breathed spontaneously. A carotid artery was cannulated for the measurement of blood pressure and this signal was used to trigger a rate meter to measure heart rate. Both jugular veins were cannulated: one for the infusion of PAF and the other for the bolus administration of test compounds.
PAF, 100 ng/kg/min was infused i.v. until a sustained fall in mean blood pressure of 50 mmHg was achieved. […] The peak of this reversal was measured and the dose to cause a 50% reversal of the hypotensive PAF response (ED50) calculated by straight line interpolation and the results are presented in Table 2.

[2] = biological target: T1, PAF receptor (human platelet plasma membranes) (Homo sapiens, UniProt P25105); test: Inhibition of [^3 H]-PAF receptor binding to human platelet plasma membranes; conditions: [^3 H]-PAF 0.5 nM, 0° C., 1 hour incubation, pH 7.0
T1 construct: Platelet concentrates were obtained from a hospital blood bank; from tissue; host or cells: human platelets (platelet concentrates from a hospital blood bank), lysed membranes
Method: The inhibition of [^3 H]-PAF binding to human platelet plasma membranes by compounds of general formula I was determined by isotopic labelling and filtration techniques. Platelet concentrates were obtained from a hospital blood bank. These platelet concentrates (500-2500 ml.) were centrifuged at 800 rpm for 10 minutes in a SORVALL RC3B centrifuge to remove the red blood cells present. (The word SORVALL is a trade mark.) The supernalant was subsequently centrifuged at 3,000 rpm in a SORVALL RC3B centrifuge to pellet the platelets present. The platelet rich pellets were resuspended in a minimum volume of buffer (150 mM NaCl, 10 mM Tris, 2 mM EDTA, pH 7.5) and layered onto Ficoll-Paque gradients, 9 ml platelet concentrate to 2 ml Ficoll, and centrifuged at 1,900 rpm for 15 minutes in a SORVALL RT6000 centrifuge. This step removes the residual red blood cells and other nonspecific material such as lymphocytes from the preparation. The platelets which form a band between the plasma and the Ficoll were removed, resuspended in the above buffer and centrifuged at 3,000 rpm for 10 minutes in a SORVALL RT6000 centrifuge. The pelleted platelets were resuspended in buffer (10 mM Tris, 5mM MgCl2, 2 mM EDTA, pH 7.0), snap freezed in liquid N2 and allowed to thaw slowly at room temperature in order to lyse the platelets. The latter step was repeated at least 3 times to ensure proper lysis. […]

T1 sequence (P25105 whole entry): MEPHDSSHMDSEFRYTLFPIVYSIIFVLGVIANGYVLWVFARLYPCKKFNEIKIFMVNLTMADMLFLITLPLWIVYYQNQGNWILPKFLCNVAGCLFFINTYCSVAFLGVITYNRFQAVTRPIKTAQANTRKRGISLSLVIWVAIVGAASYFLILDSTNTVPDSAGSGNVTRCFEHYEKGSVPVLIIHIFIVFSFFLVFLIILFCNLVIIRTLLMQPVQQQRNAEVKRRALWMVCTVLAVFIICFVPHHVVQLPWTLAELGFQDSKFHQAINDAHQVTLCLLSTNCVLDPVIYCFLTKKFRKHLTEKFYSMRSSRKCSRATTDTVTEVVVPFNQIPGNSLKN

CCCCCCCC1CCC(OCCCn2c(C)nc3cnccc32)O1 (stereo not drawn) [Example 2, O-(3-(2-Methylimidazo[4,5-c]pyrid-1-yl)propyl)-5-n-heptyl-gamma-butyrolactol ether]
ED50 [1]: 2.1 µg/kg | IC50 [2]: 120 nM

CCCCCCCC1CCCC(OCCCn2c(C)nc3cnccc32)O1 (stereo not drawn) [Example 1, O-(3-(2-Methylimidazo[4,5-c]pyrid-1-yl)propyl)-5-n-heptyl-delta-valerolactol ether]
IC50 [2]: 80 nM
